For six compounds, IC50 results are on record in US8470836B2, “Dipeptidyl peptidase-IV inhibiting compounds, methods of preparing the same, and pharmaceutical compositions containing the same as active agent” (LG Life Sciences, Ltd., priority 2007, dated 2013).

pIC50: −log10 of the molar value. Structures can show the parent of a compound that is named as a salt.

Type in all cases: biochemical
One assay has as its target DPP-IX (Homo sapiens (Human), UniProt Q86TI2). Briefly: Measurement of DPP-IX inhibitory activity (Gly-Pro-AFC). The conditions noted are these: 100 μM Gly-Pro-AFC, 50 mM HEPES pH 7.5, room temperature.
The target in the next assay is DPP-II (Homo sapiens (Human), UniProt Q9UHL4). Briefly: Measurement of DPP-II inhibitory activity (Gly-Pro-AFC). The conditions noted are these: 100 μM Gly-Pro-AFC, 50 mM acetic acid pH 4.5, room temperature.
The target of the next assay is DPP-VIII (Homo sapiens (Human), UniProt Q6V1X1). Briefly: Measurement of DPP-VIII inhibitory activity (Gly-Pro-AFC). Conditions: 100 μM Gly-Pro-AFC, 50 mM HEPES pH 7.5, room temperature.
In assay [1] the target is Dipeptidyl peptidase-IV (DPP-IV) (Homo sapiens (Human), UniProt P27487). Briefly: Assay of DPP-IV inhibitory activity (fluorescent substrate Ac-Gly-Pro-AFC). Conditions: DPP-IV 7.1 nM, 100 μM Ac-Gly-Pro-AFC, 25° C., 50 mM HEPES pH 7.4, 1 hour.
Chain of Dipeptidyl peptidase-IV (DPP-IV) (P27487 whole entry): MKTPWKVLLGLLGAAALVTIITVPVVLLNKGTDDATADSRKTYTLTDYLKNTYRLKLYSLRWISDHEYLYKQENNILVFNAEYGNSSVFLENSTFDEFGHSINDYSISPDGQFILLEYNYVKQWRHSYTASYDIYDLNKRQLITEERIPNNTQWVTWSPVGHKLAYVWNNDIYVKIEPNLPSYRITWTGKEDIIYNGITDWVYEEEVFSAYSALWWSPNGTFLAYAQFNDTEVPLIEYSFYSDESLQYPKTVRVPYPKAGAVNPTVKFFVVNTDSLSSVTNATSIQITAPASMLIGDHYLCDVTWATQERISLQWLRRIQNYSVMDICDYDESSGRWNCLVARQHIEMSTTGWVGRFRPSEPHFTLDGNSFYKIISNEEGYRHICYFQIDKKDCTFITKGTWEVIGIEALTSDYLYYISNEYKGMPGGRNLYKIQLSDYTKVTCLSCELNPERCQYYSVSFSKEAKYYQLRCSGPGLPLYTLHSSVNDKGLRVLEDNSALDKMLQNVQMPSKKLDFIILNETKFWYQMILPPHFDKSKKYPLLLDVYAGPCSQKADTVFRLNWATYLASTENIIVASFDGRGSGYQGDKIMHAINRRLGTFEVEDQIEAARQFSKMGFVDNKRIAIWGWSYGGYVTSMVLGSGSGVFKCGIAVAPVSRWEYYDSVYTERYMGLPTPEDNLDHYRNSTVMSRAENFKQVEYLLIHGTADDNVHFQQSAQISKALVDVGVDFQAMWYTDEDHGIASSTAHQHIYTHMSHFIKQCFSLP

Chain of DPP-VIII (Q6V1X1 whole entry, species assumed): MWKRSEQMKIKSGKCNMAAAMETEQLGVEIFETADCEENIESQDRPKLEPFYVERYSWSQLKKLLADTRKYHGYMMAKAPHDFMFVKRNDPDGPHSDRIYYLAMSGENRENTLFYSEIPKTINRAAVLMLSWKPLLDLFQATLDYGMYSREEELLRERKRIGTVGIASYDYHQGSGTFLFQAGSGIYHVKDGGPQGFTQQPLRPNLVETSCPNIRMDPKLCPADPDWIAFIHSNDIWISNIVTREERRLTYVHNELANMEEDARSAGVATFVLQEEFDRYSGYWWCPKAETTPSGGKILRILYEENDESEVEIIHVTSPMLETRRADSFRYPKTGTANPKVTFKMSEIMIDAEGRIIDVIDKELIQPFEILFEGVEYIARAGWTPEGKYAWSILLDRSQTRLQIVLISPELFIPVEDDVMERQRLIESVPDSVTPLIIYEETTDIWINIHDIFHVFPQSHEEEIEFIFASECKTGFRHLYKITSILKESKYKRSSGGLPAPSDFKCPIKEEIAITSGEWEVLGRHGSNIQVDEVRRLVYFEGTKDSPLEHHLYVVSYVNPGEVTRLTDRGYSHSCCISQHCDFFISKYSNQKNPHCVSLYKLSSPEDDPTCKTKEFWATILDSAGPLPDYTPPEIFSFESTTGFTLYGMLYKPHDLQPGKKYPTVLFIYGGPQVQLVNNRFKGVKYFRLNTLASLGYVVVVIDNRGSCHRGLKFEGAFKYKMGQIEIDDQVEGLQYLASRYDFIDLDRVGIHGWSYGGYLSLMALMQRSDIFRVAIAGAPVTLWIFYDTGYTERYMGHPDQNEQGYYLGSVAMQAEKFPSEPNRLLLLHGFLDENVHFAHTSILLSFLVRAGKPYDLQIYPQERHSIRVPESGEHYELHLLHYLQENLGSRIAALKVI
Chain of DPP-IX (Q86TI2 whole entry, species assumed): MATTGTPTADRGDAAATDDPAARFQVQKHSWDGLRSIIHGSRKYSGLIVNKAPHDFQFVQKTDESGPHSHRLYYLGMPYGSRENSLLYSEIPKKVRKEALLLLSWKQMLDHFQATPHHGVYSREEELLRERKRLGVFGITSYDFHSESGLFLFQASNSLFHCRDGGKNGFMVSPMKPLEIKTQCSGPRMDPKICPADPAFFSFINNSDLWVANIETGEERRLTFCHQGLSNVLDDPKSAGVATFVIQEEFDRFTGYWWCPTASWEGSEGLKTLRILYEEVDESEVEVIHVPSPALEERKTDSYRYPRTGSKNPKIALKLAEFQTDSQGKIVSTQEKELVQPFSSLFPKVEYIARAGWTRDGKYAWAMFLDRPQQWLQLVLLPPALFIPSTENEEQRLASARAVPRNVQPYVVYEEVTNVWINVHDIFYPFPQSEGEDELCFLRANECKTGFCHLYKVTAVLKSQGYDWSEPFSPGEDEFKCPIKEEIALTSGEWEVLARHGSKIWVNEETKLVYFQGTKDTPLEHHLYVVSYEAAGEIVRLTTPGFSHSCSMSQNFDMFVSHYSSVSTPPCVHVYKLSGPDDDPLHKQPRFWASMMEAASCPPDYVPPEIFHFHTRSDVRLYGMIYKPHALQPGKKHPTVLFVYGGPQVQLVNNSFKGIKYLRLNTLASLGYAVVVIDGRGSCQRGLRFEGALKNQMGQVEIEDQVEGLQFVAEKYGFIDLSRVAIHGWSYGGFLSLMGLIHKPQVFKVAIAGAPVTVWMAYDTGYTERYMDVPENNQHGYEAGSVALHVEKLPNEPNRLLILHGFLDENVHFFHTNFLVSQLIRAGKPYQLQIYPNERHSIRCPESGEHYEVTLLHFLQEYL

`N[C@@H](CC(=O)N1CCc2c(nc(C(F)(F)F)nc2C(F)(F)F)C1)CN1C(=O)CCC(F)(F)[C@@H]1O` [Example 2, 1-[(2S)-amino-4-(2,4-bis-trifluoromethyl-5,8-dihydro-6H-pyrido[3,4-d]pyrimidin-7-yl)-4-oxo-butyl]-5,5-difluoro-(6S)-hydroxy-piperidin-2-one hydrochloride]: at DPP-IX, the negative-log IC50 (pIC50) is below 3.40.

With `N[C@@H](CC(=O)N1CCc2c(nc(C3CCC3)nc2C(F)(F)F)C1)CN1C(=O)CCC(F)(F)C1O` (stereo partly drawn) [Example 5, 1-[(S)-2-amino-4-(2-cyclobutyl-4-trifluoromethyl-5,8-dihydro-6H-pyrido[3,4-d]pyrimidin-7-yl)-4-oxo-butyl]-5,5-difluoro-6-hydroxy-piperidin-2-one hydrochloride], the values for the pIC50 against DPP-II, against DPP-VIII and against DPP-IX were below 3.79, below 3.40 and below 3.40, respectively.

As to `N[C@@H](CC(=O)N1CCc2c(nc(-c3ccncc3)nc2C(F)(F)F)C1)CN1C(=O)CCC(F)(F)[C@@H]1O` [Example 6, 1-[(S)-2-amino-4-oxo-4-(2-pyridin-4-yl-4-trifluoromethyl-5,8-dihydro-6H-pyrido[3,4-d]pyrimidin-7-yl)-butyl]-5,5-difluoro-6-hydroxy-piperidin-2-one], the figures for the negative-log IC50 (pIC50) on DPP-II, at DPP-VIII and at DPP-IX were below 4.15, below 3.90 and below 4.00, respectively.

For the compound `N[C@@H](CC(=O)N1CCc2c(nc(-c3ccco3)nc2C(F)(F)F)C1)CN1C(=O)CCC(F)(F)[C@@H]1O` [Example 8, 1-[(S)-2-amino-4-(2-furan-2-yl-4-trifluoromethyl-5,8-dihydro-6H-pyrido[3,4-d]pyrimidin-7-yl)-butyl]-4-oxo-butyl]-5,5-difluoro-6-hydroxy-piperidin-2-one hydrochloride], the pIC50 at DPP-II is below 4.10; against DPP-VIII it was below 3.40; at DPP-IX, below 3.89.

As for `COCCc1nc2c(c(C(F)(F)F)n1)CCN(C(=O)C[C@H](N)CN1C(=O)CCC(F)(F)[C@@H]1O)C2` [Example 10, 1-{(S)-2-amino-4-[2-(2-methoxy-ethyl)-4-trifluoromethyl-5,8-dihydro-6H-pyrido[3,4-d]pyrimidin-7-yl]-4-oxo-butyl}-5,5-difluoro-6-hydroxy-piperidin-2-one hydrochloride], the values for the pIC50 at DPP-II, on DPP-VIII and on DPP-IX were below 3.40, below 3.40 and below 3.68, respectively.

Turning to `CC1CC(=O)N(C[C@@H](N)CC(=O)N2CCc3c(nc(C(C)(C)C)nc3C(F)(F)F)C2)C1=O` (stereo partly drawn) [Example 22, 1-[(S)-2-amino-4-(2-t-butyl-4-trifluoromethyl-5,8-dihydro-6H-pyrido[3,4-d]pyrimidin-7-yl)-4-oxo-butyl]-3-methyl-pyrrolidine-2,6-dione hydrochloride], in assay [1], the pIC50 was below 5.60.
